5 compounds from paper PMC11502347 (Frontiers in Microbiology, 2024) can be followed below.

Where only a bound is given, the exact number is not on record here.

In assay [1] the test system is Mtb CF 184 (mono-resistant to isoniazid). It counts as cell-based, Mycobacterium tuberculosis. The conditions noted are these: Mono INH clinical isolate; REMA, 7 days.
In assay [2] the test system is Mtb CF 44 (mono-resistant to isoniazid). The class given is cell-based, Mycobacterium tuberculosis. The conditions noted are these: Mono INH clinical isolate; REMA, 7H9 + 10% OADC, 7 days.

With `O=C(Nc1ccc(N2CCN(c3ccccn3)CC2)c(F)c1)c1ccc2no[n+]([O-])c2c1` [Compound 5n], the “CIM90 CF 184” value in assay [1] is listed as 0,96 ± 1,04 μM. Also, the “CIM90 CF 44” value in assay [2] is reported as 4,71 ± 3,11 μM.

Turning to `CO[C@H]1/C=C/O[C@@]2(C)Oc3c(C)c(O)c4c(O)c(c(/C=N/N5CCN(C)CC5)c(O)c4c3C2=O)NC(=O)/C(C)=C\C=C\[C@H](C)[C@H](O)[C@@H](C)[C@@H](O)[C@@H](C)[C@H](OC(C)=O)[C@@H]1C` [RFP, rifampicin], in assay [1], the “CIM90 CF 184” value is given as 0,05 ± 0,01 μM. Further, the “CIM90 CF 44” value in assay [2] is 0,05 ± 0,01 μM.

`NNC(=O)c1ccncc1` [INH, isoniazid]: the “CIM90 CF 184” value in assay [1] was > 182,30 μM. Moreover, the “CIM90 CF 44” value in assay [2] is > 182,30 μM.

`NCC[C@H](O)C(=O)N[C@@H]1C[C@H](N)[C@@H](O[C@H]2O[C@H](CN)[C@@H](O)[C@H](O)[C@H]2O)[C@H](O)[C@H]1O[C@H]1O[C@H](CO)[C@@H](O)[C@H](N)[C@H]1O` [AMK, amikacin]: the “CIM90 CF 184” value in assay [1] is on record as 0,24 ± 0,00 μM. Besides, the “CIM90 CF 44” value in assay [2] is reported as 1,48 ± 1,12 μM.

As for `O=C(Nc1ccc(N2CCSCC2)c(F)c1)c1ccc2no[n+]([O-])c2c1` [Compound 5b], the “CIM90 CF 184” value in assay [1] was 0,37 ± 0,15 μM. In assay [2], the “CIM90 CF 44” value was 0,52 ± 0,09 μM.
